Test results from patent US20230111310A1, “CARBOXYLIC ACID DERIVATIVE-SUBSTITUTED IMINO ARYL COMPOUND, PREPARATION METHOD THEREFOR, HERBICIDAL COMPOSITION AND USE THEREOF” (Qingdao Kingagroot Chemical Compound Co., Ltd., priority 2020, published 2023).

Tests used:
Assay in all cases: Weeding effect in post-emergence stage
Type in all cases: in vivo
Echinochloa crusgalli = settings: for Weeding effect in post-emergence stage, Echinochloa crusgalli: level of fresh weight growth control rate; for Weeding effect in post-emergence stage, Echinochloa crusgalli (level): fresh weight control rate level
Summary of the method: (§1)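 Doses of 500, 250, 125, 60, 30, 15 and 7.5 g/ha, with methyl oleate synergist (1.5 liter/ha) and Tween 80 from acetone solution, applied by spray tower post-emergence (2–3 leaf stage). Weed control scored after 3 further greenhouse weeks, averaged over triplicates.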

Abutilon theophrasti = settings: for Weeding effect in post-emergence stage, Abutilon theophrasti: level of fresh weight growth control rate; for Weeding effect in post-emergence stage, Abutilon theophrasti (level): fresh weight control rate level
Summary of the method: as §1

Setaria viridis = settings: for Weeding effect in post-emergence stage, Setaria viridis: level of fresh weight growth control rate; for Weeding effect in post-emergence stage, Setaria viridis (level): fresh weight control rate level
Summary of the method: as §1

Alopecurus japonicus = settings: for Weeding effect in post-emergence stage, Alopecurus japonicus: level of fresh weight growth control rate; for Weeding effect in post-emergence stage, Alopecurus japonicus (level): fresh weight control rate level
Summary of the method: as §1

Eleusine indica = settings: for Weeding effect in post-emergence stage, Eleusine indica: level of fresh weight growth control rate; for Weeding effect in post-emergence stage, Eleusine indica (level): fresh weight control rate level
Summary of the method: as §1

Digitaria sanguinalis = settings: for Weeding effect in post-emergence stage, Digitaria sanguinalis: level of fresh weight growth control rate; for Weeding effect in post-emergence stage, Digitaria sanguinalis (level): fresh weight control rate level
Summary of the method: as §1

SMILES | Weeding effect in post-emergence stage, Echinochloa crusgalli (Echinochloa crusgalli; Dose 15 g/ha) | Weeding effect in post-emergence stage, Abutilon theophrasti (Abutilon theophrasti; Dose 15 g/ha) | Weeding effect in post-emergence stage, Setaria viridis (Setaria viridis; Dose 15 g/ha) | Weeding effect in post-emergence stage, Alopecurus japonicus (Alopecurus japonicus; Dose 15 g/ha) | Weeding effect in post-emergence stage, Eleusine indica (Eleusine indica; Dose 15 g/ha) | Weeding effect in post-emergence stage, Digitaria sanguinalis (Digitaria sanguinalis; Dose 15 g/ha) | other results
CCOC(=O)C(C)O/N=C/c1cc(-n2c(=O)n(C)c(=S)n(C)c2=O)c(F)cc1C#N (racemic) [Compound 88] | 5 (Level 5: growth control rate is above 85%) | 5 (Level 5: growth control rate is above 85%) | 5 (Level 5: growth control rate is above 85%) | 5 (Level 5: growth control rate is above 85%) | 5 (Level 5: growth control rate is above 85%) | 5 (Level 5: growth control rate is above 85%) | 
COCCOC(=O)[C@@H](C)O/N=C/c1cc(-n2c(=O)cc(C(F)(F)F)n(C)c2=O)c(F)cc1Cl [230(R)] | 5 (Level 5: growth control rate is above 85%) | 5 (Level 5: growth control rate is above 85%) | 5 (Level 5: growth control rate is above 85%) | 5 (Level 5: growth control rate is above 85%) | 5 (Level 5: growth control rate is above 85%) | 5 (Level 5: growth control rate is above 85%) | 
CCOC(=O)C(F)O/N=C/c1cc(-n2c(=O)cc(C(F)(F)F)n(C)c2=O)c(F)cc1Cl (stereo not drawn) [Compound 313] | 5 (Level 5: growth control rate is above 85%) | 5 (Level 5: growth control rate is above 85%) | 5 (Level 5: growth control rate is above 85%) | 5 (Level 5: growth control rate is above 85%) | 5 (Level 5: growth control rate is above 85%) | 5 (Level 5: growth control rate is above 85%) | 
CCOC(=O)C(C)O/N=C/c1cc(-n2c(=O)n(C)c(=S)n(C)c2=S)c(F)cc1Br (racemic) [Compound 161] | 5 (Level 5: growth control rate is above 85%) | 5 (Level 5: growth control rate is above 85%) | 5 (Level 5: growth control rate is above 85%) | 4 (Level 4: growth control rate is greater than or equal to 60% and less than 85%) | 5 (Level 5: growth control rate is above 85%) | 4 (Level 4: growth control rate is greater than or equal to 60% and less than 85%) | 
C=C(Cl)COC(=O)C(C)O/N=C/c1cc(-n2c(=O)cc(C(F)(F)F)n(C)c2=O)c(F)cc1Cl (stereo not drawn) [Compound 501] |  |  |  |  |  |  | Weeding effect in post-emergence stage, Echinochloa crusgalli (level) (Echinochloa crusgalli; Dose 15 g/ha): 5 (Level 5: growth control rate is above 85%); Weeding effect in post-emergence stage, Abutilon theophrasti (level) (Abutilon theophrasti; Dose 15 g/ha): 5 (Level 5: growth control rate is above 85%); Weeding effect in post-emergence stage, Setaria viridis (level) (Setaria viridis; Dose 15 g/ha): 5 (Level 5: growth control rate is above 85%); Weeding effect in post-emergence stage, Alopecurus japonicus (level) (Alopecurus japonicus; Dose 15 g/ha): 5 (Level 5: growth control rate is above 85%); Weeding effect in post-emergence stage, Eleusine indica (level) (Eleusine indica; Dose 15 g/ha): 5 (Level 5: growth control rate is above 85%); Weeding effect in post-emergence stage, Digitaria sanguinalis (level) (Digitaria sanguinalis; Dose 15 g/ha): 5 (Level 5: growth control rate is above 85%)
CON(C)C(=O)[C@@H](C)O/N=C/c1cc(-n2c(=O)cc(C(F)(F)F)n(C)c2=O)c(F)cc1Cl [419(R)] |  |  |  |  |  |  | Weeding effect in post-emergence stage, Echinochloa crusgalli (level) (Echinochloa crusgalli; Dose 15 g/ha): 5 (Level 5: growth control rate is above 85%); Weeding effect in post-emergence stage, Abutilon theophrasti (level) (Abutilon theophrasti; Dose 15 g/ha): 5 (Level 5: growth control rate is above 85%); Weeding effect in post-emergence stage, Setaria viridis (level) (Setaria viridis; Dose 15 g/ha): 5 (Level 5: growth control rate is above 85%); Weeding effect in post-emergence stage, Alopecurus japonicus (level) (Alopecurus japonicus; Dose 15 g/ha): 5 (Level 5: growth control rate is above 85%); Weeding effect in post-emergence stage, Eleusine indica (level) (Eleusine indica; Dose 15 g/ha): 5 (Level 5: growth control rate is above 85%); Weeding effect in post-emergence stage, Digitaria sanguinalis (level) (Digitaria sanguinalis; Dose 15 g/ha): 5 (Level 5: growth control rate is above 85%)
CC(O/N=C/c1cc(-n2c(=O)cc(C(F)(F)F)n(C)c2=O)c(F)cc1Cl)C(=O)OCc1ccccc1F (stereo not drawn) [Compound 284] | 5 (Level 5: growth control rate is above 85%) | 5 (Level 5: growth control rate is above 85%) | 5 (Level 5: growth control rate is above 85%) | 5 (Level 5: growth control rate is above 85%) | 5 (Level 5: growth control rate is above 85%) | 5 (Level 5: growth control rate is above 85%) | 
C[C@@H](O/N=C/c1cc(-n2c(=O)cc(C(F)(F)F)n(C)c2=O)c(F)cc1Cl)C(=O)OCC#N [226(R)] | 5 (Level 5: growth control rate is above 85%) | 5 (Level 5: growth control rate is above 85%) | 5 (Level 5: growth control rate is above 85%) | 5 (Level 5: growth control rate is above 85%) | 5 (Level 5: growth control rate is above 85%) | 5 (Level 5: growth control rate is above 85%) | 
C[C@@H](O/N=C/c1cc(-n2c(=O)cc(C(F)(F)F)n(C)c2=O)c(F)cc1Cl)C(=O)O [193(R)] | 5 (Level 5: growth control rate is above 85%) | 5 (Level 5: growth control rate is above 85%) | 5 (Level 5: growth control rate is above 85%) | 5 (Level 5: growth control rate is above 85%) | 5 (Level 5: growth control rate is above 85%) | 5 (Level 5: growth control rate is above 85%) | 
CC(O/N=C/c1cc(-n2c(=O)n(C)c(=S)n(C)c2=O)c(F)cc1Cl)C(=O)OCc1ccccc1 (stereo not drawn) [Compound 42] | 5 (Level 5: growth control rate is above 85%) | 5 (Level 5: growth control rate is above 85%) | 5 (Level 5: growth control rate is above 85%) | 4 (Level 4: growth control rate is greater than or equal to 60% and less than 85%) | 5 (Level 5: growth control rate is above 85%) | 5 (Level 5: growth control rate is above 85%) | 
COC(=O)C(C)O/N=C/c1cc(-n2c(=O)cc(C(F)(F)F)n(C)c2=S)c(F)cc1Cl (stereo not drawn) [Compound 347] |  |  |  |  |  |  | Weeding effect in post-emergence stage, Echinochloa crusgalli (Echinochloa crusgalli; Dose 30 g/ha): 5 (Level 5: growth control rate is above 85%); Weeding effect in post-emergence stage, Abutilon theophrasti (Abutilon theophrasti; Dose 30 g/ha): 5 (Level 5: growth control rate is above 85%); Weeding effect in post-emergence stage, Setaria viridis (Setaria viridis; Dose 30 g/ha): 5 (Level 5: growth control rate is above 85%); Weeding effect in post-emergence stage, Alopecurus japonicus (Alopecurus japonicus; Dose 30 g/ha): 5 (Level 5: growth control rate is above 85%); Weeding effect in post-emergence stage, Eleusine indica (Eleusine indica; Dose 30 g/ha): 5 (Level 5: growth control rate is above 85%); Weeding effect in post-emergence stage, Digitaria sanguinalis (Digitaria sanguinalis; Dose 30 g/ha): 5 (Level 5: growth control rate is above 85%)
COC(=O)C(C)(C)OC(=O)C(C)O/N=C/c1cc(-n2c(=O)cc(C(F)(F)F)n(C)c2=O)c(F)cc1Cl (stereo not drawn) [Compound 243] | 5 (Level 5: growth control rate is above 85%) | 5 (Level 5: growth control rate is above 85%) | 5 (Level 5: growth control rate is above 85%) | 5 (Level 5: growth control rate is above 85%) | 5 (Level 5: growth control rate is above 85%) | 5 (Level 5: growth control rate is above 85%) | 
COC(=O)C(O/N=C/c1cc(-n2c(=O)cc(C(F)(F)F)n(C)c2=O)c(F)cc1Cl)C1CCCC1 (stereo not drawn) [Compound 489] |  |  |  |  |  |  | Weeding effect in post-emergence stage, Echinochloa crusgalli (level) (Echinochloa crusgalli; Dose 15 g/ha): 5 (Level 5: growth control rate is above 85%); Weeding effect in post-emergence stage, Abutilon theophrasti (level) (Abutilon theophrasti; Dose 15 g/ha): 5 (Level 5: growth control rate is above 85%); Weeding effect in post-emergence stage, Setaria viridis (level) (Setaria viridis; Dose 15 g/ha): 5 (Level 5: growth control rate is above 85%); Weeding effect in post-emergence stage, Alopecurus japonicus (level) (Alopecurus japonicus; Dose 15 g/ha): 5 (Level 5: growth control rate is above 85%); Weeding effect in post-emergence stage, Eleusine indica (level) (Eleusine indica; Dose 15 g/ha): 5 (Level 5: growth control rate is above 85%); Weeding effect in post-emergence stage, Digitaria sanguinalis (level) (Digitaria sanguinalis; Dose 15 g/ha): 5 (Level 5: growth control rate is above 85%)
